These results are taken from patent publication US3979513A, “1'-Substituted-9,10-dihydroanthracene-9-spiro-4'-piperidine derivatives” (priority 1974, dated 1976).

This data set can be described thus: acute toxicity (LD50) in mice. The following applies: mouse, in vivo. As to the method: The corresponding intravenous LD50 is 40 mg./kg. Other LD50 values for compounds of the invention when dosed intravenously are as follows: […]
Setting [1] is: iv, dosed intravenously (table 1), read-out: LD50.

Like-named read-outs stand apart in the source and are kept apart here.

One may read the LD50 as the dose at which mortality reaches 50%. With `CN1CCC2(CC1)c1ccccc1C(O)c1ccccc12` [10-hydroxy-1'-methyl-9,10-dihydroanthracene-9-spiro-4'-piperidine], the 50% lethal dose (LD50) runs as follows: (mice, intravenous, read-out: intravenous LD50) 40 mg/kg; (mice, oral, read-out: oral LD50) above 250 mg/kg.
As to `Cc1ccc2c(c1)C1(CCN(C)CC1)c1ccccc1C2O` (centres unmarked) [Me 2-Me H OH H, 1',2-dimethyl-10-hydroxy-9,10-dihydroanthracene-9-spiro-4'-piperidine], the LD50 under setting [1] stood at 37 mg/kg.
On to `CC(=O)Oc1cccc2c1Cc1ccccc1C21CCN(C)CC1` [Me 4-OAc H H H, 4-acetoxy-1'-methyl-9,10-dihydroanthracene-9-spiro-4'-piperidine], for which the LD50 under setting [1] was 43 mg/kg.
Regarding `CN1CCC2(CC1)c1ccccc1C(C)(O)c1c(O)cccc12` (centres unmarked) [Me 4-OH H OH Me, 4,10-dihydroxy-1',10-dimethyl-9,10-dihydroanthracene-9-spiro-4'-piperidine], under setting [1], the median lethal dose (LD50) amounted to 25 mg/kg.
